Measurements: patent US8501446B2 (Vertex Pharmaceuticals Incorporated, priority 2004, dated 2013)
One block for each compound: values may come before it.

Tests used:
Assay type in all cases: biochemical
JAK3 = target: T1, JAK3 (Homo sapiens, UniProt P52333); experiment: JAK3 inhibition assay (standard radioactive enzyme assay); conditions: average Ki if more than one value determined
T1 sequence (P52333 1-1124): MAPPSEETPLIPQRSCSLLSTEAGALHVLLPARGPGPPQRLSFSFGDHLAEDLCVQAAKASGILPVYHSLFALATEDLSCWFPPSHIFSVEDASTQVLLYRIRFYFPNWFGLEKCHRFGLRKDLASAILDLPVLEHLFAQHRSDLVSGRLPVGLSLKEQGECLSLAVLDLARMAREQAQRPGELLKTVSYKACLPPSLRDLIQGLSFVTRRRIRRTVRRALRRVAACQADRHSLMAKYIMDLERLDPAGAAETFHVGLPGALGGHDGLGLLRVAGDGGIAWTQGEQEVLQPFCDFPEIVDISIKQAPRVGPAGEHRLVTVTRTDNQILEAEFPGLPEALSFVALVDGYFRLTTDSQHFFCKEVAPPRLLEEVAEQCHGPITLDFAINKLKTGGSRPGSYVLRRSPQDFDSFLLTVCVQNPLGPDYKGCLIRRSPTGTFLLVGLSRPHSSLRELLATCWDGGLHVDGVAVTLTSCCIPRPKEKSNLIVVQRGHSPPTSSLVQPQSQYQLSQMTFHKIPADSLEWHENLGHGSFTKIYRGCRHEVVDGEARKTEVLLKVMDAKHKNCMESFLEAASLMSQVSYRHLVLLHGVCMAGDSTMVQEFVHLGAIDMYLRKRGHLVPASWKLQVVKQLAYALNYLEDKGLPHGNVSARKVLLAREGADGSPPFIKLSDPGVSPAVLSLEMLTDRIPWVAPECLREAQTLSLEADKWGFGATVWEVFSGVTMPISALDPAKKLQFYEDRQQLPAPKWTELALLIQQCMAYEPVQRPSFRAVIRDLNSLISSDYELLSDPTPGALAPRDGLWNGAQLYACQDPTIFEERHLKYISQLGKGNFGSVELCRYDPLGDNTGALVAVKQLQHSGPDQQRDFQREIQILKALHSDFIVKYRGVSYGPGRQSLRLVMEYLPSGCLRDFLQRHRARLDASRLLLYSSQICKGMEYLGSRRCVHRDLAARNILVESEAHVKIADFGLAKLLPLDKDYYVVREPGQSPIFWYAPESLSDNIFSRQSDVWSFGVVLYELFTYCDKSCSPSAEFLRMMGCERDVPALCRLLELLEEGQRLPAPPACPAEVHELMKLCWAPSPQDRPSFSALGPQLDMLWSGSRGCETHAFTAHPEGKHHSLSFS

JAK2 = JAK2 (Homo sapiens, UniProt O60674); experiment: JAK2 inhibition assay (radioactive enzyme assay, as for JAK3); conditions: average Ki if more than one value determined
Procedure, shortened: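 Both kinases: poly(Glu)4Tyr substrate in 100 mM HEPES pH 7.4, 10 mM MgCl2, 1 mM DTT. Run 20 min at 25° C, TCA stop, filter-bound ³³P counted, Ki(app) fitted after background subtraction. JAK3: final [γ-³³P]ATP 5 μM, enzyme added as 2 nM solution. JAK2: final poly(Glu)4Tyr 15 μM, final ATP 12 μM.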

ROCK I (AA 6-553) = target: T2, ROCK I (AA 6-553) (Homo sapiens, UniProt Q13464); experiment: ROCK inhibition assay, standard coupled enzyme system ("Enzyme"); conditions: enzyme-linked assay
T2 construct: ROCK I (AA 6-553)
Procedure, shortened: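 ROCK I (AA 6-553) at 45 nM and 30 °C with 45 μM ATP and 200 μM peptide, in 100 mM HEPES pH 7.5, 10 mM MgCl2, 25 mM NaCl, 2 mM DTT, 1.5% DMSO. ADP output read by a PK/LDH coupled system: 2.5 mM PEP, 350 μM NADH, 30 μg/ml PK, 10 μg/ml LDH.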

[1] = target: T3, full length Aurora-A (AA 1-403) (Homo sapiens, UniProt O14965); experiment: Aurora-A inhibition assay, standard coupled enzyme system; conditions: average Ki if more than one value determined
T3 construct: full length Aurora-A (AA 1-403)
T3 sequence (O14965 1-403): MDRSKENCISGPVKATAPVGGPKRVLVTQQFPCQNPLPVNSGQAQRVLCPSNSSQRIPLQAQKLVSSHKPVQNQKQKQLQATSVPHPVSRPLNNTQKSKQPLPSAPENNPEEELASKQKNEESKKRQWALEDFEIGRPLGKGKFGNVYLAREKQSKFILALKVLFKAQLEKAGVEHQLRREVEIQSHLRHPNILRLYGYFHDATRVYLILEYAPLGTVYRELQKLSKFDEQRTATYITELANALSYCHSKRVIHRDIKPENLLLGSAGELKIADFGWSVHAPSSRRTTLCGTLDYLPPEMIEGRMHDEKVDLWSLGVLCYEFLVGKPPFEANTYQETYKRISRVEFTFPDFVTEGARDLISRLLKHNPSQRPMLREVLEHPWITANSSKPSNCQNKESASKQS

T2 sequence (Q13464 6-553, species assumed): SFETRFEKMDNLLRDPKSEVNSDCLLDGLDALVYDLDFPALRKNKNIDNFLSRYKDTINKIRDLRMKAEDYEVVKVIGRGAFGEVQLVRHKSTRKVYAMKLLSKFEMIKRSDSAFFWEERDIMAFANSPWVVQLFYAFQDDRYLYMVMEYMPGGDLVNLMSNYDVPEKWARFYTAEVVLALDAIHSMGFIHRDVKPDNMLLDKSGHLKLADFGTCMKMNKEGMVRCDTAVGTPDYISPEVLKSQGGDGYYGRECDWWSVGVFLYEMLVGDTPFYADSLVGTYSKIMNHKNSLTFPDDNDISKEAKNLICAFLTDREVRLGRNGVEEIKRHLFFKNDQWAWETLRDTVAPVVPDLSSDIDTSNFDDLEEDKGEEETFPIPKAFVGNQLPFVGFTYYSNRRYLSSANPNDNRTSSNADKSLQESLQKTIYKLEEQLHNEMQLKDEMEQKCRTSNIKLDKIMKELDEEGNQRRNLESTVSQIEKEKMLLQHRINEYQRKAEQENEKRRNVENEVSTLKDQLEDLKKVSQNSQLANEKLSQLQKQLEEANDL
Sequence of JAK2 (O60674 whole entry, species assumed): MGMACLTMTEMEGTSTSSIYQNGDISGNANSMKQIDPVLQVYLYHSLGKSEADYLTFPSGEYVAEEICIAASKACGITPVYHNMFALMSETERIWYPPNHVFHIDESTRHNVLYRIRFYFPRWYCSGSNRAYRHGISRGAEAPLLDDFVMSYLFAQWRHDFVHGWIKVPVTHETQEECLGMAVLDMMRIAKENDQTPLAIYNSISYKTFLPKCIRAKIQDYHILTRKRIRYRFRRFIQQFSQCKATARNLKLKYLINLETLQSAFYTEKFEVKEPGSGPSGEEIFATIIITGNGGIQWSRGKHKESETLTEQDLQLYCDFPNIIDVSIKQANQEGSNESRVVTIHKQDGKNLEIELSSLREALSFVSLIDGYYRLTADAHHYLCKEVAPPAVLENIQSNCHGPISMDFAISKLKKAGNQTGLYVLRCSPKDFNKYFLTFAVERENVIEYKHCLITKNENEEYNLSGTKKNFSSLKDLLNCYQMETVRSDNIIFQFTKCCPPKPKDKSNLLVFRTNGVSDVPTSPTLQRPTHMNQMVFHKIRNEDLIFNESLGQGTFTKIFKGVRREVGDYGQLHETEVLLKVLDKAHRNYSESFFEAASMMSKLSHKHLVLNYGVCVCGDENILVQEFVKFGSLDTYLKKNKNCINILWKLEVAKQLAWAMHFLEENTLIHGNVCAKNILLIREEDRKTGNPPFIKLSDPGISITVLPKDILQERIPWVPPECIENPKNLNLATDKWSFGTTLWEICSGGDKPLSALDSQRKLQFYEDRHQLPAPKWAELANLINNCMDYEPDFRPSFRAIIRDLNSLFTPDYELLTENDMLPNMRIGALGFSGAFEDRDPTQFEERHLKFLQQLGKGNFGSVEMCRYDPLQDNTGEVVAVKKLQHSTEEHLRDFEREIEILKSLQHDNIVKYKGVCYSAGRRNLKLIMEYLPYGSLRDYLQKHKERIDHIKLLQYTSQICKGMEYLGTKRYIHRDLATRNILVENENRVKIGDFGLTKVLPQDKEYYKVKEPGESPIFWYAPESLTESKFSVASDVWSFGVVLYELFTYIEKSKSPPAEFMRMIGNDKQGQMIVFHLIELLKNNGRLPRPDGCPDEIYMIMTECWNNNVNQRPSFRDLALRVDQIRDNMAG

Compound: CC(C)CNc1cccc(-c2c[nH]c3ncc(Cl)cc23)n1 [Compound 99]
- Ki (JAK3): < 500 nM
- Ki (JAK2): < 500 nM
- Ki (ROCK I (AA 6-553)): 500 to 5000 nM
- Ki [1]: < 500 nM

Compound: OC[C@H](Nc1cccc(-c2c[nH]c3ncc(Cl)cc23)n1)c1ccccc1 [Compound 100]
- Ki (JAK3): < 500 nM
- Ki (JAK2): < 500 nM
- Ki (ROCK I (AA 6-553)): 500 to 5000 nM
- Ki [1]: < 500 nM

Compound: OC[C@@H](Nc1cccc(-c2c[nH]c3ncc(Cl)cc23)n1)c1ccccc1 [Compound 101]
- Ki (JAK3): < 500 nM
- Ki (JAK2): < 500 nM
- Ki (ROCK I (AA 6-553)): 500 to 5000 nM
- Ki [1]: < 500 nM

Compound: C[C@H](CO)Nc1cccc(-c2c[nH]c3ncc(Cl)cc23)n1 [Compound 102]
- Ki (JAK3): < 500 nM
- Ki (JAK2): < 500 nM
- Ki (ROCK I (AA 6-553)): 500 to 5000 nM
- Ki [1]: 500 to 5000 nM

Compound: C[C@@H](CO)Nc1cccc(-c2c[nH]c3ncc(Cl)cc23)n1 [Compound 103]
- Ki (JAK3): < 500 nM
- Ki (JAK2): < 500 nM
- Ki (ROCK I (AA 6-553)): 500 to 5000 nM
- Ki [1]: 500 to 5000 nM

Compound: CC(=O)N1[C@H](C)CN(c2ccc(-c3nnn[nH]3)c(-c3c[nH]c4ncc(Cl)cc34)n2)C[C@@H]1C [Compound 110]
- Ki (JAK3): 500 to 5000 nM
- Ki (JAK2): 500 to 5000 nM
- Ki (ROCK I (AA 6-553)): 500 to 5000 nM
- Ki [1]: 500 to 5000 nM

Compound: CC(=O)Nc1cnc2[nH]cc(-c3cccc(N4C[C@@H](C)N(C(C)=O)[C@@H](C)C4)n3)c2c1 [Compound 113]
- Ki (JAK3): < 500 nM
- Ki (JAK2): < 500 nM
- Ki (ROCK I (AA 6-553)): 500 to 5000 nM
- Ki [1]: 500 to 5000 nM

Compound: CCC(=O)Nc1cnc2[nH]cc(-c3cccc(N4C[C@@H](C)N(C(C)=O)[C@@H](C)C4)n3)c2c1 [Compound 114]
- Ki (JAK3): < 500 nM
- Ki (JAK2): < 500 nM
- Ki (ROCK I (AA 6-553)): 500 to 5000 nM
- Ki [1]: 500 to 5000 nM

Compound: CC(=O)N1[C@H](C)CN(c2cccc(-c3c[nH]c4ncc(NC(=O)C(C)C)cc34)n2)C[C@@H]1C [Compound 117]
- Ki (JAK3): < 500 nM
- Ki (JAK2): < 500 nM
- Ki (ROCK I (AA 6-553)): 500 to 5000 nM
- Ki [1]: 500 to 5000 nM

Compound: C=CC(=O)Nc1cnc2[nH]cc(-c3cccc(N4C[C@@H](C)N(C(C)=O)[C@@H](C)C4)n3)c2c1 [Compound 118]
- Ki (JAK3): < 500 nM
- Ki (JAK2): < 500 nM
- Ki (ROCK I (AA 6-553)): 500 to 5000 nM
- Ki [1]: 500 to 5000 nM

Next, values leading:

- Ki (JAK3): < 500 nM
- Ki (JAK2): < 500 nM
- Ki (ROCK I (AA 6-553)): 500 to 5000 nM
- Ki [1]: 500 to 5000 nM
Compound: CCOC(=O)CCC(=O)Nc1cnc2[nH]cc(-c3cccc(N4C[C@@H](C)N(C(C)=O)[C@@H](C)C4)n3)c2c1 [Compound 119]

- Ki (JAK3): < 500 nM
- Ki (JAK2): < 500 nM
- Ki (ROCK I (AA 6-553)): 500 to 5000 nM
- Ki [1]: < 500 nM
Compound: CC(=O)N1[C@H](C)CN(c2nc(-c3c[nH]c4ncc(Cl)cc34)ccc2-c2nnn[nH]2)C[C@@H]1C [Compound 120]

- Ki (JAK3): < 500 nM
- Ki (JAK2): < 500 nM
- Ki (ROCK I (AA 6-553)): 500 to 5000 nM
- Ki [1]: 500 to 5000 nM
Compound: CC(=O)N1[C@H](C)CN(c2cccc(-c3c[nH]c4ncc(NC(=O)CCN5CCOCC5)cc34)n2)C[C@@H]1C [Compound 121]

- Ki (JAK3): < 500 nM
- Ki (JAK2): < 500 nM
- Ki (ROCK I (AA 6-553)): 500 to 5000 nM
- Ki [1]: 500 to 5000 nM
Compound: CN(C)c1cccc(-c2c[nH]c3ncc(Cl)cc23)n1 [Compound 122]

- Ki (JAK3): < 500 nM
- Ki (JAK2): < 500 nM
- Ki (ROCK I (AA 6-553)): 500 to 5000 nM
- Ki [1]: 500 to 5000 nM
Compound: CC(C)CN(C)c1cccc(-c2c[nH]c3ncc(Cl)cc23)n1 [Compound 123]

- Ki (JAK3): < 500 nM
- Ki (JAK2): < 500 nM
- Ki (ROCK I (AA 6-553)): 500 to 5000 nM
- Ki [1]: 500 to 5000 nM
Compound: CC(=O)N1CCCN(c2cccc(-c3c[nH]c4ncc(C(=O)NCCN5CCOCC5)cc34)n2)CC1 [Compound 124]

- Ki (JAK3): < 500 nM
- Ki (JAK2): < 500 nM
- Ki (ROCK I (AA 6-553)): 500 to 5000 nM
- Ki [1]: 500 to 5000 nM
Compound: CC(=O)N1CCCN(c2cccc(-c3c[nH]c4ncc(C(=O)NCCCN5CCN(C)CC5)cc34)n2)CC1 [Compound 125]

- Ki (JAK3): < 500 nM
- Ki (JAK2): < 500 nM
- Ki (ROCK I (AA 6-553)): 500 to 5000 nM
- Ki [1]: 500 to 5000 nM
Compound: CC(=O)N1[C@H](C)CN(c2cccc(-c3c[nH]c4ncc(NC(=O)CCN5CCNCC5)cc34)n2)C[C@@H]1C [Compound 128]

- Ki (JAK3): < 500 nM
- Ki (JAK2): < 500 nM
- Ki (ROCK I (AA 6-553)): 500 to 5000 nM
- Ki [1]: < 500 nM
Compound: CC(C)[C@@H](C)Nc1cccc(-c2c[nH]c3ncc(Cl)cc23)n1 [Compound 130]

- Ki (JAK3): < 500 nM
- Ki (JAK2): < 500 nM
- Ki (ROCK I (AA 6-553)): 500 to 5000 nM
- Ki [1]: < 500 nM
Compound: C[C@@H](Nc1cccc(-c2c[nH]c3ncc(Cl)cc23)n1)c1ccc(F)cc1 [Compound 131]
